Experimental data taken from US10442807B2, “Aryl substituted bicyclic compounds as herbicides” (FMC Corporation, priority 2015, dated 2019).

Tests used:
Type in all cases: in vivo
[1] = test system: pigweed (Amaranthus retroflexus); assay: Test A postemergence application, visual injury rating; settings: approx. 10 d, 0 = no effect, 100 = complete control
How it was run: (§1)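 Rated visually against untreated controls after approx. 10 d in greenhouse, scale 0 = no effect, 100 = complete control. Seeded loam/sand blend given directed soil spray preemergence, or plants sprayed at one- to two-leaf stage, 2-10 cm tall; surfactant-containing non-phytotoxic solvent formulation.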

[2] = test system: kochia (Kochia scoparia); assay: as above; settings: approx. 10 d, 0 = no effect, 100 = complete control
How it was run: as §1

[3] = test system: blackgrass (Alopecurus myosuroides); assay: as above; settings: approx. 10 d, 0 = no effect, 100 = complete control
How it was run: as §1

[4] = test system: foxtail, giant (giant foxtail, Setaria faberii); assay: as above; settings: approx. 10 d, 0 = no effect, 100 = complete control
How it was run: as §1

[5] = test system: ryegrass, Italian (Italian ryegrass, Lolium multiflorum); assay: as above; settings: approx. 10 d, 0 = no effect, 100 = complete control
How it was run: as §1

[6] = test system: wheat (Triticum aestivum); assay: as above; settings: approx. 10 d, 0 = no effect, 100 = complete control
How it was run: as §1

[7] = test system: galium (catchweed bedstraw, Galium aparine); assay: as above; settings: approx. 10 d, 0 = no effect, 100 = complete control
How it was run: as §1

[8] = test system: barnyardgrass (Echinochloa crus-galli); assay: as above; settings: approx. 10 d, 0 = no effect, 100 = complete control
How it was run: as §1

[9] = test system: corn (Zea mays); assay: as above; settings: approx. 10 d, 0 = no effect, 100 = complete control
How it was run: as §1

[10] = test system: ragweed (common ragweed, Ambrosia elation); assay: as above; settings: approx. 10 d, 0 = no effect, 100 = complete control
How it was run: as §1

[11] = test system: sedge, umbrella (small-flower umbrella sedge, Cyperus difformis); assay: Test B flooded paddy test, visual plant response rating; settings: 250 g ai/ha; applied to paddy water at 2-leaf stage; rated after 13 to 15 days; scale 0 to 100, 0 is no effect, 100 is complete control
How it was run: (§2)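 Water stood 3 cm above the soil when compounds were applied into it, and it was kept there for the whole test. After 13 to 15 days in the greenhouse, plants were compared with controls and rated visually from 0 (no effect) to 100 (complete control).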

[12] = test system: rice (Oryza sativa); assay: as above; settings: 250 g ai/ha; applied to paddy water at 2-leaf stage; rated after 13 to 15 days; scale 0 to 100, 0 is no effect, 100 is complete control
How it was run: as §2

[13] = test system: ducksalad (Heteranthera limosa); assay: as above; settings: 250 g ai/ha; applied to paddy water at 2-leaf stage; rated after 13 to 15 days; scale 0 to 100, 0 is no effect, 100 is complete control
How it was run: as §2

[14] = test system: barnyardgrass (Echinochloa crus-galli); assay: as above; settings: 250 g ai/ha; applied to paddy water at 2-leaf stage; rated after 13 to 15 days; scale 0 to 100, 0 is no effect, 100 is complete control
How it was run: as §2

[15] = test system: pigweed (Amaranthus retroflexus); assay: Test A preemergence, directed soil spray, visual injury rating; settings: approx. 10 d, 0 = no effect, 100 = complete control
How it was run: as §1

[16] = test system: kochia (Kochia scoparia); assay: as above; settings: approx. 10 d, 0 = no effect, 100 = complete control
How it was run: as §1

[17] = test system: foxtail, giant (giant foxtail, Setaria faberii); assay: as above; settings: approx. 10 d, 0 = no effect, 100 = complete control
How it was run: as §1

[18] = test system: ryegrass, Italian (Italian ryegrass, Lolium multiflorum); assay: as above; settings: approx. 10 d, 0 = no effect, 100 = complete control
How it was run: as §1

[19] = test system: barnyardgrass (Echinochloa crus-galli); assay: as above; settings: approx. 10 d, 0 = no effect, 100 = complete control
How it was run: as §1

[20] = test system: ragweed (common ragweed, Ambrosia elation); assay: as above; settings: approx. 10 d, 0 = no effect, 100 = complete control
How it was run: as §1

## Cc1ccc(C2Cn3cnnc3C2C(=O)Nc2cccc(F)c2F)cc1C (stereo not drawn) [Compound 16]
[1]; 125 g ai/ha
  Pigweed plant response rating (0 to 100 scale): 0
[1]; 500 g ai/ha
  Pigweed plant response rating (0 to 100 scale): 0
[2]; 125 g ai/ha
  Kochia plant response rating (0 to 100 scale): 30
[2]; 500 g ai/ha
  Kochia plant response rating (0 to 100 scale): 30
[3]; 125 g ai/ha
  Blackgrass plant response rating (0 to 100 scale): 0
[3]; 500 g ai/ha
  Blackgrass plant response rating (0 to 100 scale): 60
[4]; 125 g ai/ha
  Foxtail, Giant plant response rating (0 to 100 scale): 60
[4]; 500 g ai/ha
  Foxtail, Giant plant response rating (0 to 100 scale): 80
[5]; 125 g ai/ha
  Ryegrass, Italian plant response rating (0 to 100 scale): 0
[5]; 500 g ai/ha
  Ryegrass, Italian plant response rating (0 to 100 scale): 50
[6]; 125 g ai/ha
  Wheat plant response rating (0 to 100 scale): 0
[6]; 500 g ai/ha
  Wheat plant response rating (0 to 100 scale): 50
[7]; 125 g ai/ha
  Galium plant response rating (0 to 100 scale): 40
[7]; 500 g ai/ha
  Galium plant response rating (0 to 100 scale): 50
[8]; 125 g ai/ha
  Barnyardgrass plant response rating (0 to 100 scale): 60
[8]; 500 g ai/ha
  Barnyardgrass plant response rating (0 to 100 scale): 80
[9]; 125 g ai/ha
  Corn plant response rating (0 to 100 scale): 0
[9]; 500 g ai/ha
  Corn plant response rating (0 to 100 scale): 70
[10]; 125 g ai/ha
  Ragweed plant response rating (0 to 100 scale): 0
[10]; 500 g ai/ha
  Ragweed plant response rating (0 to 100 scale): 50
[11]
  Plant response rating, Flood, Sedge, Umbrella: 0
[12]
  Plant response rating, Flood, Rice: 15
[13]
  Plant response rating, Flood, Ducksalad: 75
[14]
  Plant response rating, Flood, Barnyardgrass: 50
[15]; 125 g ai/ha
  Pigweed plant response rating (0 to 100 scale): 0
[15]; 500 g ai/ha
  Pigweed plant response rating (0 to 100 scale): 0
[16]; 125 g ai/ha
  Kochia plant response rating (0 to 100 scale): 70
[16]; 500 g ai/ha
  Kochia plant response rating (0 to 100 scale): 80
[17]; 125 g ai/ha
  Foxtail, Giant plant response rating (0 to 100 scale): 90
[17]; 500 g ai/ha
  Foxtail, Giant plant response rating (0 to 100 scale): 90
[18]; 125 g ai/ha
  Ryegrass, Italian plant response rating (0 to 100 scale): 0
[18]; 500 g ai/ha
  Ryegrass, Italian plant response rating (0 to 100 scale): 60
[19]; 125 g ai/ha
  Barnyardgrass plant response rating (0 to 100 scale): 70
[19]; 500 g ai/ha
  Barnyardgrass plant response rating (0 to 100 scale): 90
[20]; 125 g ai/ha
  Ragweed plant response rating (0 to 100 scale): 0
[20]; 500 g ai/ha
  Ragweed plant response rating (0 to 100 scale): 50

## CCCc1nnc2n1CC(c1ccc(C(F)(F)F)cc1)C2C(=O)Nc1cccc(F)c1F (stereo not drawn) [Compound 17]
[1]; 125 g ai/ha
  Pigweed plant response rating (0 to 100 scale): 0
[1]; 500 g ai/ha
  Pigweed plant response rating (0 to 100 scale): 40
[2]; 125 g ai/ha
  Kochia plant response rating (0 to 100 scale): 20
[2]; 500 g ai/ha
  Kochia plant response rating (0 to 100 scale): 50
[3]; 125 g ai/ha
  Blackgrass plant response rating (0 to 100 scale): 0
[3]; 500 g ai/ha
  Blackgrass plant response rating (0 to 100 scale): 20
[4]; 125 g ai/ha
  Foxtail, Giant plant response rating (0 to 100 scale): 0
[4]; 500 g ai/ha
  Foxtail, Giant plant response rating (0 to 100 scale): 30
[5]; 125 g ai/ha
  Ryegrass, Italian plant response rating (0 to 100 scale): 0
[5]; 500 g ai/ha
  Ryegrass, Italian plant response rating (0 to 100 scale): 0
[6]; 125 g ai/ha
  Wheat plant response rating (0 to 100 scale): 0
[6]; 500 g ai/ha
  Wheat plant response rating (0 to 100 scale): 0
[7]; 125 g ai/ha
  Galium plant response rating (0 to 100 scale): 40
[7]; 500 g ai/ha
  Galium plant response rating (0 to 100 scale): 50
[8]; 125 g ai/ha
  Barnyardgrass plant response rating (0 to 100 scale): 0
[8]; 500 g ai/ha
  Barnyardgrass plant response rating (0 to 100 scale): 30
[9]; 125 g ai/ha
  Corn plant response rating (0 to 100 scale): 0
[9]; 500 g ai/ha
  Corn plant response rating (0 to 100 scale): 0
[10]; 125 g ai/ha
  Ragweed plant response rating (0 to 100 scale): 0
[10]; 500 g ai/ha
  Ragweed plant response rating (0 to 100 scale): 0
[11]
  Plant response rating, Flood, Sedge, Umbrella: 0
[12]
  Plant response rating, Flood, Rice: 0
[13]
  Plant response rating, Flood, Ducksalad: 30
[14]
  Plant response rating, Flood, Barnyardgrass: 0
[15]; 125 g ai/ha
  Pigweed plant response rating (0 to 100 scale): 0
[15]; 500 g ai/ha
  Pigweed plant response rating (0 to 100 scale): 20
[16]; 125 g ai/ha
  Kochia plant response rating (0 to 100 scale): 0
[16]; 500 g ai/ha
  Kochia plant response rating (0 to 100 scale): 30
[17]; 125 g ai/ha
  Foxtail, Giant plant response rating (0 to 100 scale): 30
[17]; 500 g ai/ha
  Foxtail, Giant plant response rating (0 to 100 scale): 90
[18]; 125 g ai/ha
  Ryegrass, Italian plant response rating (0 to 100 scale): 0
[18]; 500 g ai/ha
  Ryegrass, Italian plant response rating (0 to 100 scale): 0
[19]; 125 g ai/ha
  Barnyardgrass plant response rating (0 to 100 scale): 0
[19]; 500 g ai/ha
  Barnyardgrass plant response rating (0 to 100 scale): 50
[20]; 125 g ai/ha
  Ragweed plant response rating (0 to 100 scale): 0
[20]; 500 g ai/ha
  Ragweed plant response rating (0 to 100 scale): 0

## CSc1ccccc1NC(=O)C1c2nncn2CC1c1ccc(C)c(C)c1 (stereo not drawn) [Compound 18]
[1]; 125 g ai/ha
  Pigweed plant response rating (0 to 100 scale): 0
[1]; 500 g ai/ha
  Pigweed plant response rating (0 to 100 scale): 0
[2]; 125 g ai/ha
  Kochia plant response rating (0 to 100 scale): 20
[2]; 500 g ai/ha
  Kochia plant response rating (0 to 100 scale): 20
[3]; 125 g ai/ha
  Blackgrass plant response rating (0 to 100 scale): 0
[3]; 500 g ai/ha
  Blackgrass plant response rating (0 to 100 scale): 0
[4]; 125 g ai/ha
  Foxtail, Giant plant response rating (0 to 100 scale): 0
[4]; 500 g ai/ha
  Foxtail, Giant plant response rating (0 to 100 scale): 20
[5]; 125 g ai/ha
  Ryegrass, Italian plant response rating (0 to 100 scale): 0
[5]; 500 g ai/ha
  Ryegrass, Italian plant response rating (0 to 100 scale): 0
[6]; 125 g ai/ha
  Wheat plant response rating (0 to 100 scale): 0
[6]; 500 g ai/ha
  Wheat plant response rating (0 to 100 scale): 0
[7]; 125 g ai/ha
  Galium plant response rating (0 to 100 scale): 20
[7]; 500 g ai/ha
  Galium plant response rating (0 to 100 scale): 20
[8]; 125 g ai/ha
  Barnyardgrass plant response rating (0 to 100 scale): 0
[8]; 500 g ai/ha
  Barnyardgrass plant response rating (0 to 100 scale): 30
[9]; 125 g ai/ha
  Corn plant response rating (0 to 100 scale): 0
[9]; 500 g ai/ha
  Corn plant response rating (0 to 100 scale): 0
[10]; 125 g ai/ha
  Ragweed plant response rating (0 to 100 scale): 0
[10]; 500 g ai/ha
  Ragweed plant response rating (0 to 100 scale): 0
[11]
  Plant response rating, Flood, Sedge, Umbrella: 0
[12]
  Plant response rating, Flood, Rice: 0
[13]
  Plant response rating, Flood, Ducksalad: 40
[14]
  Plant response rating, Flood, Barnyardgrass: 0
[15]; 125 g ai/ha
  Pigweed plant response rating (0 to 100 scale): 0
[15]; 500 g ai/ha
  Pigweed plant response rating (0 to 100 scale): 0
[16]; 125 g ai/ha
  Kochia plant response rating (0 to 100 scale): 0
[16]; 500 g ai/ha
  Kochia plant response rating (0 to 100 scale): 0
[17]; 125 g ai/ha
  Foxtail, Giant plant response rating (0 to 100 scale): 0
[17]; 500 g ai/ha
  Foxtail, Giant plant response rating (0 to 100 scale): 80
[18]; 125 g ai/ha
  Ryegrass, Italian plant response rating (0 to 100 scale): 0
[18]; 500 g ai/ha
  Ryegrass, Italian plant response rating (0 to 100 scale): 20
[19]; 125 g ai/ha
  Barnyardgrass plant response rating (0 to 100 scale): 20
[19]; 500 g ai/ha
  Barnyardgrass plant response rating (0 to 100 scale): 60
[20]; 125 g ai/ha
  Ragweed plant response rating (0 to 100 scale): 0
[20]; 500 g ai/ha
  Ragweed plant response rating (0 to 100 scale): 30
